From patent US11628202B2, “Methods of reducing the need for surgery in patients suffering from benign prostatic hyperplasia” (Nymox Corporation, priority 2015, dated 2023)

Test system: patients with moderate to severe symptomatic benign prostatic hyperplasia (BPH)
Experiment: Prospective assessment of need for subsequent invasive surgical intervention in BPH patients after NX-1207 injection
Assay type: in vivo, human
Description: 645 patients (Group #1) with moderate to severe symptomatic benign prostatic hyperplasia (BPH) were prospectively randomly assigned to blinded treatment with a single therapeutic injection of NX-1207 or placebo (saline vehicle alone), and their clinical BPH signs and symptoms were assessed at weekly, monthly, 3-monthly or longer intervals, for durations of a few months to 5.5 years. None of these patients had received any prior invasive surgical procedures to treat their BPH condition. A prospective assessment was undertaken of all available subjects>=2 years after baseline to determine the usefulness of NX-1207 treatment for the prevention or the delay of the need for surgical procedures (i.e., subsequent invasive surgical intervention) to treat the patient's BPH condition. Patients who received placebo and no drug treatment progressed to invasive surgical procedures within 2 years of baseline in 7.65% of patients.
352 patients (Group #2) who were randomized and blindly treated with NX-1207 or placebo at the same time as Group #1 in Example 1, in addition to the initial treatment, were given a second treatment injection of NX-1207 at intervals of >=1 year after the initial randomization. None of these patients had received any prior invasive surgical procedures to treat their BPH condition. A prospective assessment was undertaken of all available subjects>=2 years after baseline to determine the usefulness of NX-1207 treatment for the prevention or the delay of the need for invasive surgical intervention to treat the patient's BPH condition.
Patients in Examples 1 and 2 were characterized as to whether they had previous treatment failures with conventional oral medications (i.e. “treatment failure”) vs whether they had not received any previous conventional oral medications for their BPH condition (i.e., “treatment naïve”). A prospective assessment was undertaken of all available subjects>=2 years after baseline to determine the usefulness of NX-1207 treatment for the prevention or the delay of the need for subsequent invasive surgical intervention to treat the patient's BPH condition.
In the above examples, the amount of NX-1207 administered was 2.5 mg.

In the case of “IDQQVLSRIKLEIKRCL [NX-1207, NTP peptide injected once or twice (2.5 mg) in BPH patients]”, the “improvement in reducing the need for subsequent invasive surgical intervention, compared to patients who received a single injection” value (administered twice) is reported as about 69%, the “improvement in reducing the need for subsequent invasive surgical intervention, compared to patients who received the placebo” value (administered twice) is reported as about 80% and the “need for subsequent invasive surgical intervention” value (previous treatment failure subjects, assessed >=2 years after baseline, treatment failure placebo 10.4%) is reported as 6.1%. For the same sequence, the “rate of need for invasive surgical procedures” value (second injection >=1 year after initial randomization, assessed >=2 years after baseline, p<0.001 vs placebo 7.65%, p<0.01 vs single injection 5.1%) was 1.6%, the “reduced rate of invasive surgical procedures within 2 years, compared to placebo” value (single therapeutic injection, 2.5 mg) was 33.3% and the “patients progressed to invasive surgical procedures within 2 years of baseline” value (single therapeutic injection, 2.5 mg, BPH patients, no prior invasive surgery, placebo 7.65%) was 5.1%. The “improvement in reducing the need for subsequent invasive surgical intervention, compared to patients who received the placebo” value (treatment naive patients) was about 88%, the “improvement in reducing the need for subsequent invasive surgical intervention, compared to treatment failure patients who received the NTP peptide” value (treatment naive patients) was about 85% and the “improvement in reducing the need for subsequent invasive surgical intervention, compared to treatment failure patients who received the placebo” value (treatment naive patients) was about 91%. For the same sequence, the “need for invasive surgical procedures” value (treatment naïve patients, assessed >=2 years after baseline, placebo controls 7.5%, p<0.01) was 0.9%.
